Measurements as given in PubChem BioAssay AID2060497 (Molecular Pharmacology Branch, DTP, NCI, 2025).
pIC50: −log10 of the molar value. Blank lines part the entries; values can stand above or below the compound they belong to.

Tested on: 317291-083-R-J1-PDC complex spheroids, viability
Assay: Anticancer human tumor 317291-083-R-J1-PDC patient-derived soft tissue sarcoma cell line growth inhibition [GQUAD]
Settings: for pIC50: curve of first compound; for viability, T/C: stronger effect = lower value
How it was run: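 Multi-cell-type spheroids of tumor cells with HUVEC and mesenchymal stem cells, treated with drug combinations. Concentrations descend in half-log steps from near clinical Cmax, or from 10 microM where Cmax is unknown; viability read-out.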

[1] = second compound 0.0316 µM, first compound 0.0316 µM
[2] = second compound 0.0316 µM, first compound 0.1 µM
[3] = second compound 0.0316 µM, first compound 0.316 µM
[4] = second compound 0.0316 µM, first compound 1 µM
[5] = second compound 0.0316 µM, first compound 3.16 µM
[6] = second compound 0.0316 µM, first compound 10 µM
[7] = second compound 0.1 µM, first compound 0.0316 µM
[8] = second compound 0.1 µM, first compound 0.1 µM
[9] = second compound 0.1 µM, first compound 0.316 µM
[10] = second compound 0.1 µM, first compound 1 µM
[11] = second compound 0.1 µM, first compound 3.16 µM
[12] = second compound 0.1 µM, first compound 10 µM
[13] = second compound 0.316 µM, first compound 0.0316 µM
[14] = second compound 0.316 µM, first compound 0.1 µM
[15] = second compound 0.316 µM, first compound 0.316 µM
[16] = second compound 0.316 µM, first compound 1 µM
[17] = second compound 0.316 µM, first compound 3.16 µM
[18] = second compound 0.316 µM, first compound 10 µM
[19] = second compound 1 µM, first compound 0.0316 µM
[20] = second compound 1 µM, first compound 0.1 µM
[21] = second compound 1 µM, first compound 0.316 µM
[22] = second compound 1 µM, first compound 1 µM
[23] = second compound 1 µM, first compound 3.16 µM
[24] = second compound 1 µM, first compound 10 µM
[25] = second compound 3.16 µM, first compound 0.0316 µM
[26] = second compound 3.16 µM, first compound 0.1 µM
[27] = second compound 3.16 µM, first compound 0.316 µM
[28] = second compound 3.16 µM, first compound 1 µM
[29] = second compound 3.16 µM, first compound 3.16 µM
[30] = second compound 3.16 µM, first compound 10 µM
[31] = second compound 10 µM, first compound 0.0316 µM
[32] = second compound 10 µM, first compound 0.1 µM
[33] = second compound 10 µM, first compound 0.316 µM
[34] = second compound 10 µM, first compound 1 µM
[35] = second compound 10 µM, first compound 3.16 µM
[36] = second compound 10 µM, first compound 10 µM
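Also: spheroids exposed to compounds for one week before readout.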
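For viability, T/C in this document: percent viability relative to DMSO vehicle wells taken as 100%.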

pIC50 (second compound 0.0316 µM): 6.63
pIC50 (second compound 0.1 µM): 7.16
pIC50 (second compound 0.316 µM): 7.18
pIC50 (second compound 1 µM): > 7.50
pIC50 (second compound 3.16 µM): > 7.50
pIC50 (second compound 10 µM): > 7.50
SMILES: COc1cc(C2c3cc4c(cc3C(OC3OC5COC(C)OC5C(O)C3O)C3COC(=O)C23)OCO4)cc(OC)c1O (stereo unspecified) + Cc1cnc(CNC(=O)c2c(=O)c3ccc(N4CCCN(C)CC4)nc3n3c2sc2ccccc23)cn1
viability, T/C [1]: 81.6%
viability, T/C [2]: 68.3%
viability, T/C [3]: 41.4%
viability, T/C [4]: 27.7%
viability, T/C [5]: 15.4%
viability, T/C [6]: 11.6%
viability, T/C [7]: 57.5%
viability, T/C [8]: 46.3%
viability, T/C [9]: 35.3%
viability, T/C [10]: 24.9%
viability, T/C [11]: 15.6%
viability, T/C [12]: 9.12%
viability, T/C [13]: 70.5%
viability, T/C [14]: 39.3%
viability, T/C [15]: 19.3%
viability, T/C [16]: 18.8%
viability, T/C [17]: 16.2%
viability, T/C [18]: 10.7%
viability, T/C [19]: 35.9%
viability, T/C [20]: 28.4%
viability, T/C [21]: 22.7%
viability, T/C [22]: 18.7%
viability, T/C [23]: 9.1%
viability, T/C [24]: 8.25%
viability, T/C [25]: 22.9%
viability, T/C [26]: 41.3%
viability, T/C [27]: 14.7%
viability, T/C [28]: 13.1%
viability, T/C [29]: 9.56%
viability, T/C [30]: 3.72%
viability, T/C [31]: 28.6%
viability, T/C [32]: 14.6%
viability, T/C [33]: 9.56%
viability, T/C [34]: 10.8%
viability, T/C [35]: 5.33%
viability, T/C [36]: 11.2%

pIC50 (second compound 0.0316 µM): 7.46
pIC50 (second compound 0.1 µM): > 7.50
pIC50 (second compound 0.316 µM): > 7.50
pIC50 (second compound 1 µM): > 7.50
pIC50 (second compound 3.16 µM): > 7.50
pIC50 (second compound 10 µM): > 7.50
SMILES: Nc1ccn(C2OC(CO)C(O)C2(F)F)c(=O)n1 (stereo unspecified) + Cc1cnc(CNC(=O)c2c(=O)c3ccc(N4CCCN(C)CC4)nc3n3c2sc2ccccc23)cn1
viability, T/C [1]: 53.1%
viability, T/C [2]: 20.4%
viability, T/C [3]: 17.6%
viability, T/C [4]: 11.2%
viability, T/C [5]: 8.79%
viability, T/C [6]: 6.85%
viability, T/C [7]: 43.9%
viability, T/C [8]: 39.9%
viability, T/C [9]: 11.6%
viability, T/C [10]: 15.9%
viability, T/C [11]: 8.93%
viability, T/C [12]: 7.45%
viability, T/C [13]: 43.4%
viability, T/C [14]: 19.6%
viability, T/C [15]: 11.2%
viability, T/C [16]: 8.54%
viability, T/C [17]: 14.6%
viability, T/C [18]: 8.2%
viability, T/C [19]: 31.5%
viability, T/C [20]: 21.2%
viability, T/C [21]: 26.3%
viability, T/C [22]: 6.79%
viability, T/C [23]: 8.1%
viability, T/C [24]: 7.55%
viability, T/C [25]: 19%
viability, T/C [26]: 17.5%
viability, T/C [27]: 9.09%
viability, T/C [28]: 7.43%
viability, T/C [29]: 5.04%
viability, T/C [30]: 5.88%
viability, T/C [31]: 16.9%
viability, T/C [32]: 24.9%
viability, T/C [33]: 7%
viability, T/C [34]: 8.35%
viability, T/C [35]: 5.09%
viability, T/C [36]: 8.27%

pIC50 (second compound 0.0316 µM): 5.68
pIC50 (second compound 0.1 µM): 5.74
pIC50 (second compound 0.316 µM): 6.28
pIC50 (second compound 1 µM): > 7.50
pIC50 (second compound 3.16 µM): > 7.50
pIC50 (second compound 10 µM): > 7.50
SMILES: O=c1[nH]cc(F)c(=O)[nH]1 + Cc1cnc(CNC(=O)c2c(=O)c3ccc(N4CCCN(C)CC4)nc3n3c2sc2ccccc23)cn1
viability, T/C [1]: 101%
viability, T/C [2]: 96.3%
viability, T/C [3]: 103%
viability, T/C [4]: 64.6%
viability, T/C [5]: 44.3%
viability, T/C [6]: 24.6%
viability, T/C [7]: 68.2%
viability, T/C [8]: 69.3%
viability, T/C [9]: 60.9%
viability, T/C [10]: 79.8%
viability, T/C [11]: 31.3%
viability, T/C [12]: 24.7%
viability, T/C [13]: 51.8%
viability, T/C [14]: 50.6%
viability, T/C [15]: 71.5%
viability, T/C [16]: 40%
viability, T/C [17]: 34.7%
viability, T/C [18]: 23.3%
viability, T/C [19]: 35.2%
viability, T/C [20]: 25.6%
viability, T/C [21]: 31%
viability, T/C [22]: 32.7%
viability, T/C [23]: 23.6%
viability, T/C [24]: 22.5%
viability, T/C [25]: 31.2%
viability, T/C [26]: 29.8%
viability, T/C [27]: 25.6%
viability, T/C [28]: 49.5%
viability, T/C [29]: 22.6%
viability, T/C [30]: 15.1%
viability, T/C [31]: 21.4%
viability, T/C [32]: 28%
viability, T/C [33]: 14.6%
viability, T/C [34]: 26.5%
viability, T/C [35]: 25.7%
viability, T/C [36]: 16.4%
